Source: patent US20260347353A1, “INDOLIZINE DERIVATIVES FOR TREATING CANCER” (Antares Therapeutics, Inc., priority 2022, published 2026)

Tests used:
p53 Y220C = p53 Y220C (Homo sapiens, UniProt P04637, Y220C); assay: Luciferase Reporter Assay, p53 Y220C (NCIH1299 cells with inducible p53 Y220C and p53 response element-luciferase); type: cell-based; settings: 6 hour compound treatment, read-out: Luc P53 Y220C AC50
Protocol: Luciferase reporter (Luc) driven by p53 response element (LTV-p53-Luc (SKU #: LTLR007); G&P Biosciences) and inducible p53 Y220C construct (Tet-One inducible expression system; Takara) were stably expressed in NCIH1299 cells by lentiviral transduction. The cells were then used for p53 reporter assay. 5,000 cells were seeded in each well of 384 plate and cultured in 0.5 ug/mL doxycycline (D3072; Sigma) containing medium for 24 hours before compound treatment. After 6 hour of compound treatment, equal volume of One-Glo reagent (E6110; Promega) was added to each well and the plate was incubated for 5 minutes with shaking at room temperature. The luciferase activity was immediately measured with PheraStar microplate reader. Luciferase activity was stimulated by 10 uM of a tool compound as positive control and AC50 was calculated.

[1] = target: T1, p53 Y220C mutant protein (amino acid residues 94-293) (Homo sapiens, UniProt P04637, Y220C); assay: Surface Plasmon Resonance (SPR) assay, p53 Y220C Kd_kinetic; settings: multi-cycle kinetics, 16 or 20 °C, pH 7.5, 1:1 binding model
T1 construct: p53 Y220C mutant protein (amino acid residues 94-293)
T1 sequence (P04637 94-293, stated change not applied): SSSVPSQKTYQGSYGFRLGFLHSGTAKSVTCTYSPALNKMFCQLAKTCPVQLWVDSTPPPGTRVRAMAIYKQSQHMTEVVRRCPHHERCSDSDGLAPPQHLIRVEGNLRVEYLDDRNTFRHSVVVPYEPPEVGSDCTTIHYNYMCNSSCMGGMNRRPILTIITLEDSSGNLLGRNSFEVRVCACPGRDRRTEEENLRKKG
Protocol: SPR experiments are performed on a Biacore 8K instrument. […] Compounds are 2-fold, 7-point serial diluted; the top concentration varies depending on the potency. Compound binding affinities are measured in the multi-cycle kinetics mode, at 30 μL/min flow rate with 60 seconds association time and 120 seconds dissociation time. The running buffer contains 50 mM Tris, pH 7.5, 100 mM NaCl, 1 mM DTT, 0.01% Brij35, 0.05% Tween-20 and 1% DMSO. The assay temperature is maintained at 16 or 20 °C and data are fit into the 1:1 binding model using the Biacore Insight Evaluation software.

NUGC3 cells (p53 Y220C) = assay: Cell Proliferation Assay (CellTiter-Glo), NUGC3 p53 Y220C; type: cell-based; settings: Homo sapiens, NUGC-3, 120 h, 5 days, read-out: CTG NUGC3 P53 Y220C IC50
Protocol: Inducible p53 Y220C and R273H constructs (Tet-One inducible expression system; Takara) were stably expressed in NCIH1299 cells by lentiviral transduction. NUGC3, A549, BxPC3, T3M4, HuH7, HCC2935, MFE296, NCIH1299, NCIH1299-inducible p53 Y220C, and NCIH1299-inducible p53 R273H cell lines were used for cell proliferation assay. 250-500 cells were seeded in each well of 384 plate and then compounds were dispensed into each well using Echo or Tecan. After 5 days of incubation, equal volume of CellTiter-Glo reagent (G7570; Promega) was added into each well and the plate was incubated at room temperature for 10 minutes with shaking. The luminescent signal was measured by PheraStar microplate reader and IC50 was calculated.

CN1CC[C@@H](Nc2cccn3c(SC(F)(F)F)c(-c4noc(CNC(=O)c5ccn(CCF)c5)n4)cc23)[C@@H](F)C1 [Example 96]
AC50 (p53 Y220C): < 750 nM
Kd [1]: < 10 nM

CN1CC[C@@H](Nc2cccn3c(SC(F)(F)F)c(-c4noc([C@@H](CO)NC(=O)C5CC5)n4)cc23)[C@@H](F)C1 [Example 53, N-[(1R)-1-[3-(8-{[(3S,4R)-3-fluoro-1-methylpiperidin-4-yl]amino}-3-[(trifluoromethyl)sulfanyl]indolizin-2-yl)-1,2,4-oxadiazol-5-yl]-2-hydroxyethyl]cyclopropanecarboxamide]
AC50 (p53 Y220C): ≥ 3000 nM
IC50 (NUGC3 cells (p53 Y220C)): ≥ 3000 nM
Kd [1]: 10 to 100 nM

CN1CC[C@@H](Nc2cccn3c(SC(F)(F)F)c(-c4noc(CNC(=O)c5nnc[nH]5)n4)cc23)[C@@H](F)C1 [Example 83]
IC50 (NUGC3 cells (p53 Y220C)): 750 to 1500 nM

CN1CC[C@@H](Nc2cccn3c(SC(F)(F)F)c(-c4noc(CNC(=O)[C@@H]5COCCN5C)n4)cc23)[C@@H](F)C1 [Example 69, (3S)—N-{[3-(8-{[(3S,4R)-3-fluoro-1-methylpiperidin-4-yl]amino}-3-[(trifluoromethyl)sulfanyl]indolizin-2-yl)-1,2,4-oxadiazol-5-yl]methyl}-4-methylmorpholine-3-carboxamide]
AC50 (p53 Y220C): ≥ 3000 nM
IC50 (NUGC3 cells (p53 Y220C)): ≥ 3000 nM
Kd [1]: 10 to 100 nM

CN1CC[C@@H](Nc2cccn3c(SC(F)(F)F)c(-c4noc(CNC(=O)c5ccn(C)c5)n4)cc23)[C@@H](F)C1 [Example 86]
AC50 (p53 Y220C): < 750 nM
Kd [1]: < 10 nM

CN1CC[C@@H](Nc2cccn3c(SC(F)(F)F)c(-c4cc(CNC(=O)c5cnn(C(C)(C)C)c5)on4)cc23)[C@@H](F)C1 [Example 88]
AC50 (p53 Y220C): < 750 nM
Kd [1]: 10 to 100 nM

COCC1(n2ccc(C(=O)NCc3nc(-c4cc5c(N[C@@H]6CCN(C)C[C@@H]6F)cccn5c4SC(F)(F)F)no3)c2)CC1 [Example 97]
AC50 (p53 Y220C): < 750 nM
Kd [1]: < 10 nM

CN1CC[C@@H](Nc2cccn3c(SC(F)(F)F)c(-c4noc(CNC(=O)c5ncn[nH]5)n4)cc23)[C@@H](F)C1 [Example 75]
AC50 (p53 Y220C): 750 to 1500 nM
IC50 (NUGC3 cells (p53 Y220C)): 750 to 1500 nM
Kd [1]: < 10 nM

CN1CC[C@@H](Nc2cccn3c(SC(F)(F)F)c(-c4noc([C@H](CO)NC(=O)C5CC5)n4)cc23)[C@@H](F)C1 [Example 55, N-[(1S)-1-[3-(8-{[(3S,4R)-3-fluoro-1-methylpiperidin-4-yl]amino}-3-[(trifluoromethyl)sulfanyl]indolizin-2-yl)-1,2,4-oxadiazol-5-yl]-2-hydroxyethyl]cyclopropanecarboxamide]
AC50 (p53 Y220C): ≥ 3000 nM
IC50 (NUGC3 cells (p53 Y220C)): ≥ 3000 nM
Kd [1]: 10 to 100 nM

CN1CC[C@@H](Nc2cccn3c(SC(F)(F)F)c(-c4noc(CNC(=O)c5cnco5)n4)cc23)[C@@H](F)C1 [Example 72]
AC50 (p53 Y220C): < 750 nM
IC50 (NUGC3 cells (p53 Y220C)): < 750 nM
Kd [1]: < 10 nM

CN1CC[C@@H](Nc2cccn3c(SC(F)(F)F)c(-c4noc(CNC(=O)c5cnn(C)c5)n4)cc23)[C@@H](F)C1 [Example 85]
AC50 (p53 Y220C): < 750 nM
IC50 (NUGC3 cells (p53 Y220C)): < 750 nM
Kd [1]: < 10 nM

CN1CC[C@@H](Nc2cccn3c(SC(F)(F)F)c(-c4noc(CNC(=O)[C@H]5COCCN5C)n4)cc23)[C@@H](F)C1 [Example 68, (3R)-N-{[3-(8-{[(3S,4R)-3-fluoro-1-methylpiperidin-4-yl]amino}-3-[(trifluoromethyl)sulfanyl]indolizin-2-yl)-1,2,4-oxadiazol-5-yl]methyl}-4-methylmorpholine-3-carboxamide]
AC50 (p53 Y220C): ≥ 3000 nM
IC50 (NUGC3 cells (p53 Y220C)): ≥ 3000 nM
Kd [1]: 10 to 100 nM

CN1CC[C@@H](Nc2cccn3c(SC(F)(F)F)c(-c4cc(CNC(=O)C5CC5)no4)cc23)[C@@H](F)C1 [Example 87]
AC50 (p53 Y220C): 750 to 1500 nM
Kd [1]: < 10 nM

CN1CC[C@@H](Nc2cccn3c(SC(F)(F)F)c(-c4noc(CNC(=O)c5ccn(C6(C)CCOCC6)c5)n4)cc23)[C@@H](F)C1 [Example 94]
AC50 (p53 Y220C): < 750 nM
IC50 (NUGC3 cells (p53 Y220C)): < 750 nM
Kd [1]: < 10 nM

CN1CC[C@@H](Nc2cccn3c(SC(F)(F)F)c(-c4noc(CNC(=O)c5ccno5)n4)cc23)[C@@H](F)C1 [Example 76]
AC50 (p53 Y220C): < 750 nM
IC50 (NUGC3 cells (p53 Y220C)): 750 to 1500 nM
Kd [1]: < 10 nM

CN1CC[C@@H](Nc2cccn3c(SC(F)(F)F)c(-c4noc(CNC(=O)c5ncon5)n4)cc23)[C@@H](F)C1 [Example 74]
AC50 (p53 Y220C): 750 to 1500 nM
IC50 (NUGC3 cells (p53 Y220C)): 1500 to 3000 nM
Kd [1]: < 10 nM

Cc1ncc(C(=O)NCc2nc(-c3cc4c(N[C@@H]5CCN(C)C[C@@H]5F)cccn4c3SC(F)(F)F)no2)o1 [Example 71]
AC50 (p53 Y220C): < 750 nM
IC50 (NUGC3 cells (p53 Y220C)): < 750 nM
Kd [1]: < 10 nM

CN1CC[C@@H](Nc2cccn3c(SC(F)(F)F)c(-c4noc(CNC(=O)c5cnn[nH]5)n4)cc23)[C@@H](F)C1 [Example 80]
AC50 (p53 Y220C): 1500 to 3000 nM
IC50 (NUGC3 cells (p53 Y220C)): 1500 to 3000 nM
Kd [1]: < 10 nM

CN1CC[C@@H](Nc2cccn3c(SC(F)(F)F)c(-c4noc(CNC(=O)c5ncn(C)n5)n4)cc23)[C@@H](F)C1 [Example 78]
AC50 (p53 Y220C): < 750 nM
IC50 (NUGC3 cells (p53 Y220C)): < 750 nM
Kd [1]: < 10 nM

CN1CC[C@@H](Nc2cccn3c(SC(F)(F)F)c(-c4noc(CNC(=O)c5cncs5)n4)cc23)[C@@H](F)C1 [Example 70]
AC50 (p53 Y220C): < 750 nM
IC50 (NUGC3 cells (p53 Y220C)): < 750 nM
Kd [1]: < 10 nM

CN1CC[C@@H](Nc2cccn3c(SC(F)(F)F)c(-c4cc(CNC(=O)c5cnc(N(C)C)s5)no4)cc23)[C@@H](F)C1 [Example 92]
AC50 (p53 Y220C): < 750 nM
Kd [1]: < 10 nM

CN1CC[C@@H](Nc2cccn3c(SC(F)(F)F)c(-c4noc(CNC(=O)c5cnc(N)o5)n4)cc23)[C@@H](F)C1 [Example 77]
AC50 (p53 Y220C): < 750 nM
IC50 (NUGC3 cells (p53 Y220C)): < 750 nM
Kd [1]: < 10 nM

CN1CC[C@@H](Nc2cccn3c(SC(F)(F)F)c(-c4noc(CNC(=O)c5nsc(N(C)C)n5)n4)cc23)[C@@H](F)C1 [Example 93]
AC50 (p53 Y220C): < 750 nM
IC50 (NUGC3 cells (p53 Y220C)): < 750 nM
Kd [1]: < 10 nM

CN1CC[C@@H](Nc2cccn3c(SC(F)(F)F)c(-c4cnc(CNC(=O)C5CC5)o4)cc23)[C@@H](F)C1 [Example 84]
AC50 (p53 Y220C): ≥ 3000 nM
IC50 (NUGC3 cells (p53 Y220C)): ≥ 3000 nM
Kd [1]: 10 to 100 nM

CN1CC[C@@H](Nc2cccn3c(SC(F)(F)F)c(-c4noc(CNC(=O)c5ccn(CC(C)(C)O)c5)n4)cc23)[C@@H](F)C1 [Example 95]
AC50 (p53 Y220C): < 750 nM
Kd [1]: < 10 nM

CN1CC[C@@H](Nc2cccn3c(SC(F)(F)F)c(-c4noc(CNC(=O)c5cnc[nH]5)n4)cc23)[C@@H](F)C1 [Example 73]
AC50 (p53 Y220C): < 750 nM
IC50 (NUGC3 cells (p53 Y220C)): 750 to 1500 nM
Kd [1]: < 10 nM

CNC(=O)c1cnc(NCc2nc(-c3cc4c(N[C@@H]5CCN(C)C[C@@H]5F)cccn4c3SC(F)(F)F)no2)nc1 [Example 50, 2-({[3-(8-{[(3S,4R)-3-fluoro-1-methylpiperidin-4-yl]amino}-3-[(trifluoromethyl)sulfanyl]indolizin-2-yl)-1,2,4-oxadiazol-5-yl]methyl}amino)-N-methylpyrimidine-5-carboxamide]
AC50 (p53 Y220C): < 750 nM
IC50 (NUGC3 cells (p53 Y220C)): 750 to 1500 nM
Kd [1]: < 10 nM

CN1CC[C@@H](Nc2cccn3c(SC(F)(F)F)c(-c4noc(CNC(=O)c5nnc(N(C)C)s5)n4)cc23)[C@@H](F)C1 [Example 82]
AC50 (p53 Y220C): < 750 nM
IC50 (NUGC3 cells (p53 Y220C)): < 750 nM
Kd [1]: < 10 nM

Cc1noc(C(=O)NCc2nc(-c3cc4c(N[C@@H]5CCN(C)C[C@@H]5F)cccn4c3SC(F)(F)F)no2)n1 [Example 98]
AC50 (p53 Y220C): 750 to 1500 nM
IC50 (NUGC3 cells (p53 Y220C)): 750 to 1500 nM
Kd [1]: < 10 nM

CN1CC[C@@H](Nc2cccn3c(SC(F)(F)F)c(-c4noc(CNC(=O)c5cnn(C)n5)n4)cc23)[C@@H](F)C1 [Example 79]
AC50 (p53 Y220C): < 750 nM
IC50 (NUGC3 cells (p53 Y220C)): < 750 nM
Kd [1]: < 10 nM

CNC(=O)c1coc(NCc2nc(-c3cc4c(N[C@@H]5CCN(C)C[C@@H]5F)cccn4c3SC(F)(F)F)no2)n1 [Example 81]
AC50 (p53 Y220C): < 750 nM
IC50 (NUGC3 cells (p53 Y220C)): 750 to 1500 nM
Kd [1]: < 10 nM

CN1CC[C@@H](Nc2cccn3c(SC(F)(F)F)c(-c4cc(CNC(=O)c5cnn(C(C)(C)C)c5)no4)cc23)[C@@H](F)C1 [Example 89]
AC50 (p53 Y220C): < 750 nM
IC50 (NUGC3 cells (p53 Y220C)): < 750 nM
Kd [1]: < 10 nM

CN1CC[C@@H](Nc2cccn3c(SC(F)(F)F)c(-c4cc(CNC(=O)c5cnc(N(C)C)o5)no4)cc23)[C@@H](F)C1 [Example 90]
AC50 (p53 Y220C): < 750 nM
Kd [1]: < 10 nM

CN1CC[C@@H](Nc2cccn3c(SC(F)(F)F)c(-c4noc(CNC(=O)c5noc(N(C)C)n5)n4)cc23)[C@@H](F)C1 [Example 91]
AC50 (p53 Y220C): < 750 nM
Kd [1]: < 10 nM
